According to ChEMBL document CHEMBL1129370, “Synthesis, ligand binding, and quantitative structure-activity relationship study of 3 beta-(4'-substituted phenyl)-2 beta-heterocyclic tropanes: evidence for an electrostatic interaction at the 2 beta-position” (J Med Chem, 1996):

What was measured:
[1] = molecular target: Norepinephrine transporter (Rattus norvegicus, UniProt Q9WTR4); assay: Binding affinity against Norepinephrine transporter using [3H]nisoxetine in midbrain of rat; assay type: tissue-based
Chain of Norepinephrine transporter (Q9WTR4 whole entry): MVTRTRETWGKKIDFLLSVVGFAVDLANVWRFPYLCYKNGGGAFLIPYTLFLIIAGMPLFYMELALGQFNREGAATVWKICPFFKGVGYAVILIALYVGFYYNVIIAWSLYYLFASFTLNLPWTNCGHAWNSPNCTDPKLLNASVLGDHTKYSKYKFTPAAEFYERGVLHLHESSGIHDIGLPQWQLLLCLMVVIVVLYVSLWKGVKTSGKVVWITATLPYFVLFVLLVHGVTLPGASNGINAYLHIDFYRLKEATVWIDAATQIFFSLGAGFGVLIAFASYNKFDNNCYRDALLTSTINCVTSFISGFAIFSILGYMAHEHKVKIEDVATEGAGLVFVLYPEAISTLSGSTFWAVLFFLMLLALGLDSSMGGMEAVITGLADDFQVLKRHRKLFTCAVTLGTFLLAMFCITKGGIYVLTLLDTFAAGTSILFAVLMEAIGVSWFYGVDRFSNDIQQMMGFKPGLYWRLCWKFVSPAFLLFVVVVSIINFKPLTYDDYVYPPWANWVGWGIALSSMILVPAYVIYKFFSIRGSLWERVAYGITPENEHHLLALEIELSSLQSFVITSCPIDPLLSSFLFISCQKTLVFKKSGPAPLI

[2] = molecular target: T1, Sodium-dependent dopamine transporter (Rattus norvegicus, UniProt P23977); assay: Binding affinity against Dopamine transporter using [3H]WIN-35 428 in rat striatum; assay type: tissue-based
T1 sequence (P23977 whole entry): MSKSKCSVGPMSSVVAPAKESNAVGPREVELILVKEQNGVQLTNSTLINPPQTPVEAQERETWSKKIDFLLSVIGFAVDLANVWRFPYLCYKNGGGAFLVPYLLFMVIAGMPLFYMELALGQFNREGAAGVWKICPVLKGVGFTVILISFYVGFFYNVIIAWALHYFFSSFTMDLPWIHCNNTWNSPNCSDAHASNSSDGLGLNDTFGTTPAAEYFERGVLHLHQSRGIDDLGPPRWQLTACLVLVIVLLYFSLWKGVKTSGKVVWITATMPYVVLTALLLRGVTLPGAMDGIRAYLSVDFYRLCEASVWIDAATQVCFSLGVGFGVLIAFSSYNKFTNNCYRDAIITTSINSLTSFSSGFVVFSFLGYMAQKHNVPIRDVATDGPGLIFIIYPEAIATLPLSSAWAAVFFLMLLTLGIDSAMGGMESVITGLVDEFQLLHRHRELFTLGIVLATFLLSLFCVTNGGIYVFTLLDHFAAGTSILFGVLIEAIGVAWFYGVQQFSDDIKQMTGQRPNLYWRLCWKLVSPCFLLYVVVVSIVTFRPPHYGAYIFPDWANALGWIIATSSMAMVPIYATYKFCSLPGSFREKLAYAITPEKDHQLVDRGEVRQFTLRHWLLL

[3] = molecular target: Sodium-dependent serotonin transporter (Rattus norvegicus, UniProt P31652); assay: Binding affinity against serotonin transporter using [3H]paroxetine in rat frontal cortex; assay type: tissue-based
Chain of Sodium-dependent serotonin transporter (P31652 whole entry): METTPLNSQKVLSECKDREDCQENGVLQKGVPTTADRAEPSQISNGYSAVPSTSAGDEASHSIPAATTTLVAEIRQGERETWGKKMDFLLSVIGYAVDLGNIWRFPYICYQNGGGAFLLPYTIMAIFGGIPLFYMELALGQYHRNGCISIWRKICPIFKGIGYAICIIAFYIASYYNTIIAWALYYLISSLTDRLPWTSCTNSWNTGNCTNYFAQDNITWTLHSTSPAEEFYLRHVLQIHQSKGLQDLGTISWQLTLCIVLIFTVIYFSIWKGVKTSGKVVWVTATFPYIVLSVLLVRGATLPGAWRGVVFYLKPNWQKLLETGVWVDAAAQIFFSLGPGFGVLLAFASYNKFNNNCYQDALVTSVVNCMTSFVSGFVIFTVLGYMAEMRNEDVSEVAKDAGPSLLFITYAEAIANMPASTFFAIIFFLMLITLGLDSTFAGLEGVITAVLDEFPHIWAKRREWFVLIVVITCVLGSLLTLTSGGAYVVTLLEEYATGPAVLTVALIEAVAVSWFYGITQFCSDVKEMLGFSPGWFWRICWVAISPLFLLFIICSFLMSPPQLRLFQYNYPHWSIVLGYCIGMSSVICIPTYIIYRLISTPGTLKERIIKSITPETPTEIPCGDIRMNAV

[4] = molecular target: T1, Sodium-dependent dopamine transporter; assay: Ability to inhibit [3H]dopamine uptake into rat striatal synaptosomes; assay type: subcellular, Brain
[5] = molecular target: T1, Sodium-dependent dopamine transporter; assay: Ability to inhibition uptake of […]

Compound: COC(=O)[C@@H]1C2CC[C@H](C[C@@H]1c1ccc(C)cc1)N2C
- IC50 [1]: 60 nM

Compound: Cc1ccc(C2C[C@H]3CCC([C@H]2c2cc(-c4ccccc4)no2)N3C)cc1 (some centres not stated)
- IC50 [2]: 1.58 nM
- IC50 [1]: 398 nM
- IC50 [3]: 5.11 µM

Compound: CN1C2CC[C@@H]1CC(c1ccc(Cl)cc1)[C@@H]2c1ncc(-c2ccccc2)s1 (some centres not stated)
- IC50 [2]: 5.71 nM
- IC50 [1]: 8560 nM
- IC50 [3]: 10.3 µM

Compound: Cc1cc([C@H]2C(c3ccc(Cl)cc3)C[C@H]3CCC2N3C)on1 (some centres not stated)
- IC50 [2]: 0.59 nM
- IC50 [1]: 181 nM
- IC50 [3]: 0.572 µM

Compound: CN1C2CCC1[C@@H](c1nnc(-c3ccccc3)s1)C(c1ccc(Cl)cc1)C2 (some centres not stated)
- IC50 [2]: 15.3 nM
- IC50 [1]: 4140 nM
- IC50 [3]: 18.4 µM

Compound: Cc1ccc(C2C[C@H]3CCC([C@H]2c2nn[nH]n2)N3C)cc1 (some centres not stated)
- IC50 [2]: 1560 nM
- IC50 [1]: 32500 nM
- IC50 [3]: 43.6 µM

Compound: CN1C2CC[C@@H]1CC(c1ccc(Cl)cc1)[C@@H]2c1nnn[nH]1 (some centres not stated)
- IC50 [1]: 17400 nM
- IC50 [3]: 5.46 µM

Compound: Cc1ccc(C2C[C@H]3CCC([C@H]2c2nnc(C)o2)N3C)cc1 (some centres not stated)
- IC50 [2]: 4.45 nM
- IC50 [1]: 253 nM
- IC50 [3]: 4.89 µM

Compound: CN1C2CC[C@@H]1CC(c1ccc(Cl)cc1)[C@H]2c1nc2ccccc2s1 (some centres not stated)
- IC50 [2]: 188 nM
- IC50 [1]: 59500 nM
- IC50 [3]: 5.21 µM

Compound: CN1C2CC[C@@H]1CC(c1ccc(Cl)cc1)[C@@H]2c1nnc(-c2ccccc2)o1 (some centres not stated)
- IC50 [2]: 12.6 nM
- Ki [4]: 18.7 nM
- IC50 [1]: 929 nM
- IC50 [3]: 3.3 µM

Compound: Cc1ccc(C2C[C@H]3CCC([C@H]2C(=O)Oc2ccccc2)N3C)cc1 (some centres not stated)
- IC50 [2]: 3.26 nM
- IC50 [1]: 5800 nM
- IC50 [3]: 24.5 µM

Compound: Cc1ccc(C2C[C@H]3CCC([C@@H]2c2nnc(-c4ccccc4)o2)N3C)cc1 (some centres not stated)
- IC50 [2]: 523 nM
- IC50 [1]: 48700 nM
- IC50 [3]: 65 µM

Compound: Cc1ccc(C2C[C@H]3CCC([C@H]2c2ncc(-c4ccccc4)o2)N3C)cc1 (some centres not stated)
- IC50 [2]: 35.4 nM
- IC50 [1]: 677 nM
- IC50 [3]: 1.7 µM

Compound: CN1C2CC[C@@H]1CC(c1ccc(Cl)cc1)[C@@H]2c1nc2ccccc2s1 (some centres not stated)
- IC50 [2]: 1.37 nM
- IC50 [1]: 403 nM
- IC50 [3]: 1.12 µM

Compound: CN1C2CCC1[C@@H](c1nc(-c3ccccc3)no1)C(c1ccc(Cl)cc1)C2 (some centres not stated)
- IC50 [2]: 1.62 nM
- Ki [4]: 0.59 nM
- IC50 [1]: 245 nM
- IC50 [3]: 0.195 µM

Compound: Cc1ccc(C2C[C@H]3CCC([C@H]2c2nnc(-c4ccccc4)s2)N3C)cc1 (some centres not stated)
- IC50 [2]: 35.9 nM
- IC50 [1]: 24300 nM
- IC50 [3]: 51.5 µM

Compound: CN1C2CC[C@@H]1CC(c1ccc(Cl)cc1)[C@@H]2C(=O)O (some centres not stated)
- IC50 [2]: 2070 nM
- IC50 [1]: > 200000 nM
- IC50 [3]: 59.5 µM

Compound: CN1C2CC[C@@H]1CC(c1ccc(I)cc1)[C@@H]2c1cc(-c2ccccc2)no1 (some centres not stated)
- IC50 [2]: 2.57 nM
- IC50 [1]: 868 nM
- IC50 [3]: 0.1 µM

Compound: CN1C2CC[C@@H]1CC(c1ccc(Cl)cc1)[C@H]2c1nnc(-c2ccccc2)o1 (some centres not stated)
- IC50 [2]: 1100 nM
- IC50 [1]: 286000 nM
- IC50 [3]: 19.2 µM

Compound: CN1C2CC[C@@H]1CC(c1ccc(Cl)cc1)[C@@H]2c1cc(-c2ccccc2)no1 (some centres not stated)
- IC50 [2]: 1.28 nM
- Ki [4]: 2.08 nM
- IC50 [1]: 504 nM
- IC50 [3]: 2.42 µM

Compound: Cc1ccc(C2C[C@H]3CCC([C@H]2c2nnc(-c4ccccc4)o2)N3C)cc1 (some centres not stated)
- IC50 [2]: 47.5 nM
- IC50 [1]: 1310 nM
- IC50 [3]: 23.3 µM

Compound: CN1C2CCC1[C@@H](c1ncc(-c3ccccc3)o1)C(c1ccc(Cl)cc1)C2 (some centres not stated)
- IC50 [2]: 19.7 nM
- Ki [4]: 19 nM
- IC50 [1]: 496 nM
- IC50 [3]: 1.12 µM

Compound: Cc1ccc(C2C[C@H]3CCC([C@H]2c2cc(C)no2)N3C)cc1 (some centres not stated)
- IC50 [2]: 0.93 nM
- IC50 [1]: 254 nM
- IC50 [3]: 3.82 µM

Compound: Cc1ccc(C2C[C@H]3CCC([C@H]2c2nc(-c4ccccc4)no2)N3C)cc1 (some centres not stated)
- IC50 [2]: 2.33 nM
- IC50 [1]: 60 nM
- IC50 [3]: 1.07 µM

Compound: Cc1cc([C@H]2C(c3ccc(I)cc3)C[C@H]3CCC2N3C)on1 (some centres not stated)
- IC50 [2]: 0.73 nM
- IC50 [1]: 67.9 nM
- IC50 [3]: 0.0364 µM

Compound: CN1C2CC[C@@H]1CC(c1ccc(Cl)cc1)[C@@H]2C(=O)Oc1ccccc1 (some centres not stated)
- IC50 [2]: 1.98 nM
- Ki [5]: 5.25 nM
- IC50 [1]: 2950 nM
- IC50 [3]: 2.3 µM

Compound: Cc1noc([C@H]2C(c3ccc(Cl)cc3)C[C@H]3CCC2N3C)n1 (some centres not stated)
- IC50 [1]: 363 nM
- IC50 [3]: 2.58 µM
